From patent publication US20260248780A1, “PHARMACEUTICAL COMPOSITIONS” (Birdie Biopharmaceuticals, Inc., priority 2017, published 2026)
Counter-ions that a name gives are not always drawn. Marks after values point to notes of the source that are not given here.

Columns and labels:
[1] = Kinetic solubility in water and bio-relevant media (SGF, FaSSIF, FeSSIF) at RT; assay type: physicochemical
Experimental: After being centrifuged and separated using 0.45 μm Nylon filter, filtrates were collected for HPLC and pH test, and wet cakes for XRPD characterization. If clear solutions were obtained after 24 hours, accurate concentration and purity were measured for the solutions.

[2] = Inter-conversion of crystal forms via storage and heating experiments; assay type: physicochemical
[3] = water and bio-relevant media (SGF, FaSSIF, FeSSIF) at RT

Structure (SMILES)	S: Solubility ([1]; FaSSIF, RT, 1 hr)	S: Solubility ([1]; FaSSIF, RT, 2 hrs)	S: Solubility ([1]; FaSSIF, RT, 4 hrs)	S: Solubility ([1]; FaSSIF, RT, 24 hrs)	S: Solubility ([1]; SGF, RT, 1 hr)	S: Solubility ([1]; SGF, RT, 2 hrs)	S: Solubility ([1]; SGF, RT, 4 hrs)	S: Solubility ([1]; SGF, RT, 24 hrs)	S: Solubility ([1]; Water, RT, 1 hr)	S: Solubility ([1]; Water, RT, 2 hrs)	S: Solubility ([1]; Water, RT, 4 hrs)	S: Solubility ([1]; Water, RT, 24 hrs)	solubility compared with freebase Type A [1, 3]	also measured
CCOCc1nc2c(N)nc3ccccc3c2n1CC(C)(C)O [Maleate Type A, resiquimod]	2.2 mg/mL	2.3 mg/mL	2.4 mg/mL	2.3 mg/mL	1.4 mg/mL	1.5 mg/mL	1.6 mg/mL	1.5 mg/mL	0.93 mg/mL	0.98 mg/mL	1.1 mg/mL	0.97 mg/mL		FC: Solid form change ([1]; FaSSIF, RT, 1 hr): No; FC: Solid form change ([1]; FaSSIF, RT, 2 hrs): No; FC: Solid form change ([1]; FaSSIF, RT, 4 hrs): No; FC: Solid form change ([1]; FaSSIF, RT, 24 hrs): No; FC: Solid form change ([1]; FeSSIF, RT, 1 hr): No; FC: Solid form change ([1]; FeSSIF, RT, 2 hrs): No; FC: Solid form change ([1]; FeSSIF, RT, 4 hrs): No; FC: Solid form change ([1]; FeSSIF, RT, 24 hrs): No; solubility compared with freebase Type A ([1]; SGF, FaSSIF, and FeSSIF at RT): decreased solubility; FC: Solid form change ([1]; SGF, RT, 1 hr): No; FC: Solid form change ([1]; SGF, RT, 2 hrs): No; FC: Solid form change ([1]; SGF, RT, 4 hrs): No; FC: Solid form change ([1]; SGF, RT, 24 hrs): No; FC: Solid form change ([1]; Water, RT, 1 hr): No; FC: Solid form change ([1]; Water, RT, 2 hrs): No; FC: Solid form change ([1]; Water, RT, 4 hrs): No; FC: Solid form change ([1]; Water, RT, 24 hrs): No; Kinetic Solubility at RT ([1]; bio-relevant media): ~1.5 (bio-relevant mg/mL; form change after kinetic solubility evaluation ([1]; remaining solids after suspended 24 hours, XRPD): no form change; Kinetic Solubility at RT ([1]; water): ~1.0 (water) mg/mL
CCOCc1nc2c(N)nc3ccccc3c2n1CC(C)(C)O [Mono-HCl salt Type A, resiquimod]					C (C: Clear)	C (C: Clear)	C (C: Clear)	4.7* mg/mL					improved or comparable solubility	solubility at 24 h ([1]; FaSSIF, thermodynamic from solid, FaSSIF, RT, 24 hrs, read-out: S: Solubility): 4500 µg/mL; S: Solubility ([1]; FeSSIF, RT, 1 hr): C (C: Clear); S: Solubility ([1]; FeSSIF, RT, 2 hrs): C (C: Clear); S: Solubility ([1]; FeSSIF, RT, 4 hrs): C (C: Clear); S: Solubility ([1]; FeSSIF, RT, 24 hrs): 4.6* mg/mL; solubility kinetic ([1]; water and bio-relevant media (SGF, FaSSIF, FeSSIF), water, water/bio-relevant media, summary): > 3800 µg/mL
CCOCc1nc2c(N)nc3ccccc3c2n1CC(C)(C)O [Type C, resiquimod]														form conversion on drying ([2]; dried at ambient conditions overnight): converted to Type A
CCOCc1nc2c(N)nc3ccccc3c2n1CC(C)(C)O [Type F, resiquimod]														form conversion on storage ([2]; storage at ambient conditions for 2 days): converted to Type A
CCOCc1nc2c(N)nc3ccccc3c2n1CC(C)(C)O [Phosphate Type A, resiquimod]	C (C: Clear)	C (C: Clear)	C (C: Clear)	4.3* mg/mL	C (C: Clear)	C (C: Clear)	C (C: Clear)	4.0* mg/mL	C (C: Clear)	C (C: Clear)	C (C: Clear)	3.9* mg/mL	improved or comparable solubility	
